Data on 24 compounds can be found in patent publication US9732094B2, “Arylquinazolines” (Merck Patent GmbH, priority 2013, dated 2017).

Read-outs that look alike come from different tables or passages of the source.

The target in one series is Kv11.1 (hERG) (Homo sapiens (Human), UniProt Q12809). The experiment in a line: Kv11.1 (hERG) ion channel activity (patch clamp assay), HEK293 cells transfected with hERG gene. A general note: hERG is a cardiac potassium channel; its block is linked to QT prolongation.
Sequence of Kv11.1 (hERG) (Q12809 whole entry): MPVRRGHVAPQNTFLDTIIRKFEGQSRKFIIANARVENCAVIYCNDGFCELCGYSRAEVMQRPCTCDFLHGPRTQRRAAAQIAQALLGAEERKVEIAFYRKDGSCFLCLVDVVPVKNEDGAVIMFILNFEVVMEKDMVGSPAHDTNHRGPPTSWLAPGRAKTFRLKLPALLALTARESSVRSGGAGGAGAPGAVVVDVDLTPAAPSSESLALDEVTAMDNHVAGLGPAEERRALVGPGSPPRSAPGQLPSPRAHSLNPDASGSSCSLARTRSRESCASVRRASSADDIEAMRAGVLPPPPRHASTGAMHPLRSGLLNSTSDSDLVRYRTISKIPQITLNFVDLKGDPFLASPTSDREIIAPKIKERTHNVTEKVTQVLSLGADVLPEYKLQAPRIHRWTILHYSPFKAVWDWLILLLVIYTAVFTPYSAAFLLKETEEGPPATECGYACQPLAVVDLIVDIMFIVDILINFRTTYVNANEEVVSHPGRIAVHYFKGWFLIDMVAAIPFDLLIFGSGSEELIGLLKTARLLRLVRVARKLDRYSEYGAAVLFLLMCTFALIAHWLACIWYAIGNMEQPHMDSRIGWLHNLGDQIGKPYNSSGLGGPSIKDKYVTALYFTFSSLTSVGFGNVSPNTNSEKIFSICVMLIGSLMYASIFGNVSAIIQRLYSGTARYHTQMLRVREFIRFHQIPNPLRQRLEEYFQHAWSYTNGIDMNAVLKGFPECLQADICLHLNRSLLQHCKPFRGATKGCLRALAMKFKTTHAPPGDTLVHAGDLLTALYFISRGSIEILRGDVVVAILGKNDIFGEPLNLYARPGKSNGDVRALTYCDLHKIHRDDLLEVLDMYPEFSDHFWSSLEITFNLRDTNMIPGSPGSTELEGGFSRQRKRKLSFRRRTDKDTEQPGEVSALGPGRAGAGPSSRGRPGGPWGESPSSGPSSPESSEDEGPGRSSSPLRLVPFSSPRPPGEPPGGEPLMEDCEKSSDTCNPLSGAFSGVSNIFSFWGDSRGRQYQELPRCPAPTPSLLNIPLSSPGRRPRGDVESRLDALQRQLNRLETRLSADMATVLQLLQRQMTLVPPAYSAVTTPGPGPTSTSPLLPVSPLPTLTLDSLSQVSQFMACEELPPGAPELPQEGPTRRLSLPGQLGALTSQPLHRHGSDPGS
For another series, the target named is DNA-PK (Homo sapiens (Human), UniProt P78527). The experiment in a line: DNA-PK assay (biochemical), flashplate 33P-ATP kinase assay. In outline:
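Radiometric kinase reaction in streptavidin-coated flashplates, stopped with 200 mM EDTA, then 30 min room-temperature incubation and saline washes.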

Series [1] has as its target DNA-PK phosphorylation at serine 2056 (Homo sapiens (Human), UniProt P78527). Nature of the series: DNA-PK phosphorylation at serine 2056 (cellular), bleomycin-treated HCT116 cells, ELISA. The series is classed as cell-based. The following applies: read-out: IC50 pDNA-PK. The gist of the method: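 Chemiluminescent ELISA read-out; phospho-specific signal normalised to total DNA-PKcs. Cells (HCT116) exposed 6 h to test compound plus 10 μM bleomycin to induce double-strand breaks; DMSO control served as blank.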
(ELISA stands for enzyme-linked immunosorbent assay.)

[2] abbreviates: read-out: Ki [Kv1.11 hERG], Table 5.
[3] abbreviates: Ki [Kv1.11 hERG], hERG patch clamp assay (cells without asterisk).
Where [4] appears, read: cellular DNA-PK phosphorylation at serine 2056, HCT116.
The mark [5] stands for this setting: Ki [Kv1.11 hERG], patch clamp, HEK293 transfected with hERG gene.
[6] abbreviates: cellular, HCT116 cells, 10 μM bleomycin, six hours.
[7] abbreviates: read-out: Ki [Kv1.11 hERG], hERG patch clamp assay (cells without asterisk).
[8] abbreviates: read-out: Ki [Kv1.11 hERG], patch clamp, HEK293 transfected with hERG gene.

One may read the Ki as a measure of affinity in units of concentration, obtained from inhibition or displacement. What is called IC50 is the concentration at which inhibition is half-maximal. For the compound `Cc1csc(C(O)c2cc(-c3ncnc4cc(N5CCOCC5)ccc34)c(F)cc2Cl)n1` (stereo not drawn) [Example 181, [2-Chloro-4-fluoro-5-(7-morpholin-4-yl-quinazolin-4-yl)-phenyl]-(4-methyl-thiazol-2-yl)-methanol], the Ki at Kv11.1 (hERG) (setting [2]) was under 10 µM. The IC50 on DNA-PK (Table 5) is under 3 nM; in series [1] (Table 5, HCT116 cells), 0.5 to 5 µM.

For `Cn1c(C(O)c2cc(-c3ncnc4cc(N5CCOCC5)ccc34)ccc2F)cccc1=O` (stereo not drawn) [Example 401, 6-{[2-Fluoro-5-(7-morpholin-4-yl-quinazolin-4-yl)-phenyl]hydroxy-methyl}-1-methyl-1H-pyridin-2-one], the Ki at Kv11.1 (hERG) (setting [3]) is 10 to 15 µM. Further, the results for the IC50 (on DNA-PK (biochemical DNA-PK assay); in series [1] (setting [4])) were 3 to 7 nM and 0.5 to 5 µM, respectively.

In the case of `OCCNc1nccnc1C(O)c1ccc(F)c(-c2ncnc3cc(N4CCOCC4)ccc23)c1` (stereo not drawn) [Example 106, 2-(3-{[4-fluoro-3-(7-morpholin-4-yl-quinazolin-4-yl)-phenyl]hydroxy-methyl}pyrazin-2-yl-amino)ethanol], the Ki on Kv11.1 (hERG) (setting [5]) lay in the range of 15 to 25 µM. Moreover, the concentration for half-maximal inhibition (IC50) is 7 to 30 nM on DNA-PK (enzymatic, 5 μM ATP) and 5 to 10 µM in series [1] (setting [6]).

For `COc1ccc(C(O)c2cc(-c3ncnc4cc(N5CCOCC5)cnc34)c(F)cc2Cl)nn1` (stereo not drawn) [Example 257, [2-Chloro-4-fluoro-5-(7-morpholin-4-yl-pyrido[3,2-d}-pyrimidin-4-yl)-phenyl]-(6-methoxy-pyridazin-3-yl)-methanol], the Ki on Kv11.1 (hERG) (setting [7]) was over 25 µM. Besides, the concentration for half-maximal inhibition (IC50) against DNA-PK (biochemical DNA-PK assay) lay within 3 to 7 nM; in series [1] (setting [4]) it was 0.5 to 5 µM.

Regarding `Cn1c(C(O)c2ccc(F)c(-c3ncnc4cc(N5CCOCC5)ccc34)c2)cccc1=O` (stereo not drawn) [Example 375, 6-{[4-Fluoro-3-(7-morpholin-4-yl-quinazolin-4-yl)-phenyl]hydroxy-methyl}-1-methyl-1H-pyridin-2-one], at Kv11.1 (hERG) (setting [7]), the Ki was over 25 µM. Moreover, the 50% inhibitory concentration (IC50) against DNA-PK (biochemical DNA-PK assay) is under 3 nM; in series [1] (setting [4]), 0.5 to 5 µM.

Take `OC(c1cccc(-c2ncnc3cc(N4CCOCC4)ccc23)c1)(c1nccs1)C(F)(F)F` (stereo not drawn) [Example 173, 2,2,2-Trifluoro-1-[3-(7-morpholin-4-yl-quinazolin-4-yl)-phenyl)-1-thiazol-2-ylethanol]: on Kv11.1 (hERG) (setting [2]), the inhibition constant (Ki) was under 10 µM. Besides, the half-maximal inhibitory concentration (IC50) on DNA-PK (Table 5) is under 3 nM; in series [1] (Table 5, HCT116 cells), 5 to 10 µM.

For the compound `O=c1ccc(C(O)c2cc(-c3ncnc4cc(N5CCOCC5)ccc34)c(F)cc2Cl)nn1CCO` (stereo not drawn) [Example 99, 6-{[2-Chloro-4-fluoro-5-(7-morpholin-4-yl-quinazolin-4-yl)phenyl]-hydroxymethyl}-2-(2-hydroxy-ethyl)-2H-pyridazin-3-one], on Kv11.1 (hERG) (setting [8]), the inhibition constant Ki was over 25 µM. The IC50 against DNA-PK (enzymatic, 5 μM ATP) was 3 to 7 nM; in series [1] (setting [6]), 0.5 to 5 µM.

`OCc1csc([C@H](O)c2cc(-c3ncnc4cc(N5CCOCC5)ccc34)c(F)cc2Cl)n1` [Example 186, (R)-[2-Chloro-4-fluoro-5-(7-morpholin-4-yl-quinazolin-4-yl)-phenyl]-(4-hydroxymethyl-thiazol-2-yl)-methanol]: the Ki at Kv11.1 (hERG) (setting [2]) was under 10 µM. The IC50 at DNA-PK (Table 5) was in the range of 7 to 30 nM; in series [1] (Table 5, HCT116 cells), 5 to 10 µM.

As for `OC(c1ccc2nccn2n1)c1cc(-c2ncnc3cc(N4CCOCC4)ccc23)c(F)cc1F` (stereo not drawn) [Example 51, [2,4-Difluoro-5-(7-morpholin-4-yl-quinazolin-4-yl)phenyl]-imidazo[1,2-b]pyridazin-6-ylmethanol], the inhibitory constant (Ki) at Kv11.1 (hERG) (setting [5]) fell in the range of 15 to 25 µM. The IC50 on DNA-PK (enzymatic, 5 μM ATP) was under 3 nM; in series [1] (setting [6]), under 0.5 µM.

`OC(c1cc(-c2ncnc3cc(N4CCOCC4)ccc23)c(F)cc1F)c1ncnc2sccc12` (stereo not drawn) [Example 90, [2,4-Difluoro-5-(7-morpholin-4-yl-quinazolin-4-yl)-phenyl]thieno[2,3-d}-pyrimidin-4-ylmethanol]: the inhibition constant Ki at Kv11.1 (hERG) (setting [8]) was over 25 µM. Moreover, the IC50 against DNA-PK (enzymatic, 5 μM ATP) is under 3 nM; in series [1] (setting [6]), under 0.5 µM.

Consider `COc1ccc(C(O)(c2cc(-c3ncnc4cc(N5CCOCC5)ccc34)c(F)cc2Cl)C(F)F)nn1` (stereo not drawn) [Example 123, 1-[2-Chloro-4-fluoro-5-(7-morpholin-4-yl-quinazolin-4-yl)-phenyl]-2,2-difluoro-1-(6-methoxy-pyridazin-3-yl)-ethanol], for which the Ki at Kv11.1 (hERG) (setting [8]) was over 25 µM. Moreover, the IC50 fell in the range of 7 to 30 nM at DNA-PK (enzymatic, 5 μM ATP) and 10 to 30 µM in series [1] (setting [6]).

`NC(=O)c1ccc(C(O)c2cc(-c3ncnc4cc(N5CCOCC5)ccc34)c(F)cc2Cl)nn1` (stereo not drawn) [Example 62, 6-{[2-Chloro-4-fluoro-5-(7-morpholin-4-yl-quinazolin-4-yl)phenyl]-hydroxymethyl}-pyridazine-3-carboxylic acid amide]: the inhibition constant Ki on Kv11.1 (hERG) (setting [8]) was over 25 µM. Besides, the IC50 against DNA-PK (enzymatic, 5 μM ATP) lay within 3 to 7 nM; in series [1] (setting [6]), 0.5 to 5 µM.

`OC(c1cc(-c2ncnc3cc(N4CCOCC4)ccc23)c(F)cc1F)c1nnc2ccccn12` (stereo not drawn) [Example 379, [2,4-Difluoro-5-(7-morpholin-4-yl-quinazolin-4-yl)-phenyl]-[1,2.4]-triazolo[4,3-a]pyridin-3-ylmethanol]: the Ki at Kv11.1 (hERG) (setting [7]) was over 25 µM. Also, the IC50 on DNA-PK (biochemical DNA-PK assay) is 3 to 7 nM; in series [1] (setting [4]) it was 0.5 to 5 µM.

Take `Cc1cncnc1C(C(N)=O)c1cc(-c2ncnc3cc(N4CCOCC4)ccc23)ccc1Cl` (stereo not drawn) [Example 378, 2-[2-Chloro-5-(7-morpholin-4-yl-quinazolin-4-yl)-phenyl]-2-(5-methyl-pyrimidin-4-yl)-acetamide]: at Kv11.1 (hERG) (setting [7]), the Ki was over 25 µM. The half-maximal inhibitory concentration (IC50) is 3 to 7 nM against DNA-PK (biochemical DNA-PK assay) and 0.5 to 5 µM in series [1] (setting [4]).

As for `Cc1nccnc1C(C(N)=O)c1cc(-c2ncnc3cc(N4CCOCC4)ccc23)c(F)cc1Cl` (stereo not drawn) [Example 324, 2-[2-Chloro-4-fluoro-5-(7-morpholin-4-yl-quinazolin-4-yl)-phenyl]-2-(3-methyl-pyrazin-2-yl)-acetamide], the Ki at Kv11.1 (hERG) (setting [7]) is over 25 µM. For the same compound, the half-inhibitory concentration (IC50) fell in the range of 3 to 7 nM against DNA-PK (biochemical DNA-PK assay) and 0.5 to 5 µM in series [1] (setting [4]).

`OC(c1cc(-c2ncnc3cc(N4CCOCC4)ccc23)ccc1Cl)c1ncnc2occc12` (stereo not drawn) [Example 416, [2-Chloro-5-(7-morpholin-4-yl-quinazolin-4-yl)-phenyl]furo[2,3-d}-pyrimidin-4-yl-methanol] yielded a Ki on Kv11.1 (hERG) (setting [3]) of 10 to 15 µM. The concentration for half-maximal inhibition (IC50) on DNA-PK (biochemical DNA-PK assay) lay within 3 to 7 nM; in series [1] (setting [4]), 0.5 to 5 µM.

`N#Cc1ccc(C(O)c2cc(-c3ncnc4cc(N5CCOCC5)ccc34)c(F)cc2Cl)nn1` (stereo not drawn) [Example 118, 6-{[2-Chloro-4-fluoro-5-{7-morpholin-4-yl-quinazolin-4-yl)-phenyl]hydroxy-methyl}pyridazine-3-carbonitrile] yielded a Ki at Kv11.1 (hERG) (setting [5]) of 15 to 25 µM. Moreover, the IC50 against DNA-PK (enzymatic, 5 μM ATP) lay in the range of 3 to 7 nM; in series [1] (setting [6]), 0.5 to 5 µM.

Regarding `OC(c1ccc(F)c(-c2ncnc3cc(N4CCOCC4)ccc23)c1)c1nccnc1N1CCCC1` (stereo not drawn) [Example 14, [4-Fluoro-3-(7-morpholin-4-yl-quinazolin-4-yl)phenyl]-(3-pyrrolidin-1-yl-pyrazin-2-yl)methanol], the inhibition constant (Ki) on Kv11.1 (hERG) (setting [8]) was over 25 µM. Also, the IC50 at DNA-PK (enzymatic, 5 μM ATP) was 3 to 7 nM; in series [1] (setting [6]), 0.5 to 5 µM.

For `Cc1cc(F)c(-c2ncnc3cc(N4CCOCC4)ccc23)cc1C(O)c1nccs1` (stereo not drawn) [Example 209, [4-Fluoro-2-methyl-5-(7-morpholin-4-yl-quinazolin-4-yl)-phenyl]thiazol-2-ylmethanol], at Kv11.1 (hERG) (setting [8]), the Ki was over 25 µM. The half-maximal inhibitory concentration (IC50) is over 30 nM at DNA-PK (enzymatic, 5 μM ATP) and 10 to 30 µM in series [1] (setting [6]).

With `CNC(=O)c1ccc(C(O)c2cc(-c3ncnc4cc(N5CCOCC5)ccc34)c(F)cc2Cl)nn1` (stereo not drawn) [Example 43, 6-{[2-Chloro-4-fluoro-5-(7-morpholin-4-yl-quinazolin-4-yl)phenyl]-hydroxymethyl}-pyridazine-3-carboxylic acid methylamide], the Ki at Kv11.1 (hERG) (setting [8]) was over 25 µM. For the same compound, the IC50 was in the range of 3 to 7 nM against DNA-PK (enzymatic, 5 μM ATP) and 0.5 to 5 µM in series [1] (setting [6]).

On to `Cn1cnc2ncnc(C(O)c3ccc(F)c(-c4ncnc5cc(N6CCOCC6)ccc45)c3)c21` (stereo not drawn) [Example 433, [4-Fluoro-3-(7-morpholin-4-yl-quinazolin-4-yl)-phenyl]-(7-methyl-7H-purin-6-yl)-methanol], for which the inhibition constant Ki at Kv11.1 (hERG) (setting [7]) was over 25 µM. In addition, the IC50 lay in the range of 7 to 30 nM against DNA-PK (biochemical DNA-PK assay) and 0.5 to 5 µM in series [1] (setting [4]).

Consider `OC(c1cc(-c2ncnc3cc(N4CCOCC4)ccc23)ccc1Cl)c1ncnc2sccc12` (stereo not drawn) [Example 430, [2-Chloro-5-(7-morpholin-4-yl-quinazolin-4-yl)-phenyl]thieno[2,3-d}-pyrimidin-4-yl-methanol], for which the inhibition constant (Ki) on Kv11.1 (hERG) (setting [7]) is over 25 µM. Besides, the IC50 against DNA-PK (biochemical DNA-PK assay) was 3 to 7 nM; in series [1] (setting [4]), under 0.5 µM.

With `COc1nccnc1C(O)c1cc(-c2ncnc3cc(N4CCOCC4)cnc23)c(F)cc1Cl` (stereo not drawn) [Example 231, [2-Chloro-4-fluoro-5-(7-morpholin-4-yl-pyrido[3,2-d}-pyrimidin-4-yl)-phenyl]-(3-methoxy-pyrazin-2-yl)-methanol], at Kv11.1 (hERG) (setting [7]), the inhibitory constant (Ki) was over 25 µM. Also, the concentration for half-maximal inhibition (IC50) was 7 to 30 nM on DNA-PK (biochemical DNA-PK assay) and 0.5 to 5 µM in series [1] (setting [4]).

As to `NCCn1nc(C(O)c2cc(-c3ncnc4cc(N5CCOCC5)ccc34)c(F)cc2Cl)ccc1=O` (stereo not drawn) [Example 94, 2-(2-Amino-ethyl)-6-{[2-Chloro-4-fluoro-5-(7-morpholin-4-yl-quinazolin-4-yl)phenyl]-hydroxymethyl}-2H-pyridazin-3-one], the Ki at Kv11.1 (hERG) (setting [8]) was over 25 µM. In addition, the IC50 against DNA-PK (enzymatic, 5 μM ATP) lay in the range of 7 to 30 nM; in series [1] (setting [6]), 10 to 30 µM.
